In ChEMBL document CHEMBL4152362, “Discovery of DS-6930, a potent selective PPARγ modulator. Part II: Lead optimization” (Bioorg Med Chem, 2018):
pEC50: −log10 of the molar value. In brackets after ≈: the same amount, converted by molar mass. Activity calls are given as the source filed them. No cut-off for these calls is given here.

What was measured:
[1] = Cmax in Zucker diabetic fatty rat at 0.3 mg/kg, po administered once daily for 21 days followed by additional administration on day 22; assay type: ADME, organism-based; design: dose 0.3 mg/kg, route oral; details: in vivo
[2] = tested on: Rattus norvegicus; assay: Antidiabetic activity in Zucker diabetic fatty rat assessed as reduction in plasma glucose level at 0.3 mg/kg, po administered once daily for 21 days measured on day 22 relative to control; assay type: functional; design: scale not given: the % may be the effect or the level left
[3] = Tmax in Zucker diabetic fatty rat at 0.3 mg/kg, po administered once daily for 21 days followed by additional administration on day 22; assay type: ADME, organism-based; details: in vivo
[4] = AUC (0 to 24 hrs) in Zucker diabetic fatty rat at 0.3 mg/kg, po administered once daily for 21 days followed by additional administration on day 22; assay type: ADME, organism-based; design: dose 0.3 mg/kg, time < 24 hr, route oral; details: in vivo
[5] = tested on: Rattus norvegicus; assay: Toxicity in Zucker diabetic fatty rat assessed as body weight gain at 3 mg/kg, po administered once daily for 14 days relative to control; assay type: organism-based; details: in vivo, 336 h
[6] = tested on: Rattus norvegicus; assay: Antidiabetic activity in Zucker diabetic fatty rat assessed as reduction in plasma glucose level at 3 mg/kg, po administered once daily for 14 days measured on day 15 relative to control; assay type: functional; design: scale not given: the % may be the effect or the level left
[7] = Cmax in Zucker diabetic fatty rat at 3 mg/kg, po dosed once daily for 14 days and followed by additional administration on day 15; assay type: ADME, organism-based; design: dose 3 mg/kg, route oral; details: in vivo
[8] = AUC (0 to 24 hrs) in Zucker diabetic fatty rat at 3 mg/kg, po dosed once daily for 14 days and followed by additional administration on day 15; assay type: ADME, organism-based; design: time < 24 hr, dose 3 mg/kg, route oral; details: in vivo
[9] = Tmax in Zucker diabetic fatty rat at 3 mg/kg, po dosed once daily for 14 days and followed by additional administration on day 15; assay type: ADME, organism-based; details: in vivo
[10] = target: T1, Peroxisome proliferator-activated receptor delta (Homo sapiens) (UniProt Q03181); assay: Agonist activity at PPARdelta (unknown origin) at 10 uM
T1 sequence (whole entry): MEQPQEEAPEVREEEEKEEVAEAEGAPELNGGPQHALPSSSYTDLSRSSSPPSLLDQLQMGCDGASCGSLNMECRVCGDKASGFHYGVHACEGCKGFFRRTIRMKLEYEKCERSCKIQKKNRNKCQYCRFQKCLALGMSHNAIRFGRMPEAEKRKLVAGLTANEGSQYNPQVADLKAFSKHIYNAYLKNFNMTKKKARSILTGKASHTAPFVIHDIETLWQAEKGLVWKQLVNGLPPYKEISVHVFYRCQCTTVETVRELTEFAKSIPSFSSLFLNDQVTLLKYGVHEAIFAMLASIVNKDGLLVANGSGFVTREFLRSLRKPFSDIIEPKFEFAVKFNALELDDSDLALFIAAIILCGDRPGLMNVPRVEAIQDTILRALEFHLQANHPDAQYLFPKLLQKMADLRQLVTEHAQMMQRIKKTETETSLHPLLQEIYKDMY

[11] = target: T2, Peroxisome proliferator-activated receptor alpha (Homo sapiens) (UniProt Q07869); assay: Agonist activity at recombinant human GAL4-DBD fused PPARalpha LBD expressed in COS7 cells at 10 uM after 24 hrs by luciferase reporter gene assay relative to 2-(4-tert-Butylphenoxy)-3-[4-[2-[(4-pyridin-2-ylbenzoyl)amino]ethoxy] phenyl]propionic acid; assay type: cell-based
T2 sequence (whole entry): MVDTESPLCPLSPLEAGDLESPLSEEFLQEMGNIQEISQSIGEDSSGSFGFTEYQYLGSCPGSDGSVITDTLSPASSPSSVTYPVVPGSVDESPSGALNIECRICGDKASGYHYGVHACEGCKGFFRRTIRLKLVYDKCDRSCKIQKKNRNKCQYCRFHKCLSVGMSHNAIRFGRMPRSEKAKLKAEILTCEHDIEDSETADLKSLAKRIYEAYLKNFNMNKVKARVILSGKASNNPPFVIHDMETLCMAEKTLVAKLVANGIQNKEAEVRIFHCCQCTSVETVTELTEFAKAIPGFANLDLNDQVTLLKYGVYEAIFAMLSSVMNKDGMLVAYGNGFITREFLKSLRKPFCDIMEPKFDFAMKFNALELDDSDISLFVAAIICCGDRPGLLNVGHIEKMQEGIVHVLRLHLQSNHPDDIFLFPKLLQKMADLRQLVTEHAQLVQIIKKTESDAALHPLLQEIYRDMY

[12] = tested on: Rattus norvegicus; assay: Antidiabetic activity in Zucker diabetic fatty rat assessed as reduction in plasma glucose level administered orally once daily for 21 days measured on day 22; assay type: functional, organism-based
[13] = tested on: Hepatocyte; assay: Cytotoxicity against F344/DuCrlCrlj rat primary hepatocytes assessed as reduction in cell viability at 10 to 100 uM after 24 hrs by LDH release assay; assay type: cell-based
[14] = Tmax in cynomolgus monkey at 3 mg/kg, po by LC-MS/MS; assay type: ADME, organism-based, Macaca fascicularis; details: in vivo
[15] = Aqueous thermodynamic solubility of the compound in pH 6.8 solution up to 4 hrs by HPLC-UV analysis; assay type: physicochemical; details: read-out: Therm_solubility
[16] = Half life in cynomolgus monkey at 3 mg/kg, po by LC-MS/MS; assay type: ADME, organism-based, Macaca fascicularis; details: in vivo
[17] = tested on: Hepatocyte; assay: Cytotoxicity against F344/DuCrlCrlj rat primary hepatocytes assessed as reduction in mitochondrial enzyme activity at 10 to 100 uM after 24 hrs by WST8 assay; assay type: cell-based
[18] = Apparent permeability of the compound after 4 hrs by PAMPA; assay type: ADME
[19] = Oral bioavailability in cynomolgus monkey at 3 mg/kg by LC-MS/MS; assay type: ADME, organism-based, Macaca fascicularis; details: in vivo
[20] = Cmax in cynomolgus monkey at 3 mg/kg, po by LC-MS/MS; assay type: ADME, organism-based, Macaca fascicularis; design: dose 3 mg/kg, route oral; details: in vivo
[21] = Volume of distribution at steady state in cynomolgus monkey at 1 mg/kg, iv by LC-MS/MS; assay type: ADME, organism-based, Macaca fascicularis; details: in vivo, read-out: Vdss
[22] = Metabolic stability in cynomolgus monkey liver microsomes after 0.5 hrs; assay type: ADME, Macaca fascicularis, microsome; details: read-out: Stability
[23] = Metabolic stability in human liver microsomes after 0.5 hrs; assay type: ADME, microsome; details: read-out: Stability
[24] = target: T3, Peroxisome proliferator-activated receptor gamma (Homo sapiens) (UniProt P37231); assay: Agonist activity at recombinant human GAL4-DBD fused PPARgamma LBD expressed in COS7 cells at 10 uM after 24 hrs by luciferase reporter gene assay relative to rosiglitazone; assay type: cell-based
T3 sequence (whole entry): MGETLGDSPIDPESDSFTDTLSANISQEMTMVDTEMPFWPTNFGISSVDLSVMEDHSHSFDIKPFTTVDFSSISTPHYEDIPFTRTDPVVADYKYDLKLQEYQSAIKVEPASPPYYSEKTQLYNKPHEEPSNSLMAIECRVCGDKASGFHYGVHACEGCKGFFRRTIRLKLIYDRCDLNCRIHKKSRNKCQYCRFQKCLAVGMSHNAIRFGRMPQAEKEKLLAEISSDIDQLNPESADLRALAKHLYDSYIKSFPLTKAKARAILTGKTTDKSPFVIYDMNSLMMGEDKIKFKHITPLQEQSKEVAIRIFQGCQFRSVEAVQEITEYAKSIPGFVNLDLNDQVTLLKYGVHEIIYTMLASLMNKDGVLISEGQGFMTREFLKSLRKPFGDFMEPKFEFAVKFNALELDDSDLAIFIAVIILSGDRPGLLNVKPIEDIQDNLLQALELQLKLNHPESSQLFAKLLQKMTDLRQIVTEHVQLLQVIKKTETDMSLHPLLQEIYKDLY

[25] = Metabolic stability in rat liver microsomes after 0.5 hrs; assay type: ADME, microsome; details: read-out: Stability
[26] = Clearance in cynomolgus monkey at 1 mg/kg, iv by LC-MS/MS; assay type: ADME, organism-based, Macaca fascicularis; details: in vivo
[27] = AUClast in cynomolgus monkey at 3 mg/kg, po by LC-MS/MS; assay type: ADME, organism-based, Macaca fascicularis; design: dose 3 mg/kg, time 0 - last, route oral; details: in vivo
[28] = 1-octanol/PBS distribution co-efficient, log D of the compound at […] at pH 7.4 after 30 mins by HPLC-MS/MS method; assay type: physicochemical
[29] = target: T4, Peroxisome proliferator-activated receptor alpha (Homo sapiens, UniProt Q07869); assay: Agonist activity at recombinant human GAL4-DBD fused PPARalpha LBD expressed in COS7 cells after 24 hrs by luciferase reporter gene assay; assay type: cell-based
T4 sequence (Q07869 whole entry): T2 sequence (whole entry)

[30] = target: T5, Peroxisome proliferator-activated receptor gamma (Homo sapiens, UniProt P37231); assay: Agonist activity at recombinant human GAL4-DBD fused PPARgamma LBD expressed in COS7 cells after 24 hrs by luciferase reporter gene assay; assay type: cell-based
T5 sequence (P37231 whole entry): T3 sequence (whole entry)

Row | Compound | Activity [5] [%] | Activity [6] [%] | Cmax [7] [ng/mL] | AUC at 24 h [8] [ng·h/mL] | Tmax [9] [h] | Activity [10] | Emax [11] [%] | solubility thermodynamic at 4 h [15] [µg/mL] | Papp at 4 h [18] [×10⁻⁶ cm/s] | remaining at 0.5 h [23] [%] | Emax [24] [%] | remaining at 0.5 h [25] [%] | logD at 0.5 h [28] | pEC50 [29] | pEC50 [30] | other results
1 | Cc1cnc(Oc2ccc3nc(COc4cccc(C(=O)[O-])c4)n(C)c3c2)c(C)c1.Cc1cnc(Oc2ccc3nc(COc4cccc(C(=O)[O-])c4)n(C)c3c2)c(C)c1.[Ca+2] |  |  |  |  |  |  |  |  |  |  |  |  |  |  |  | Cmax [1]: 79.2 ng/mL; Activity [2]: 47%; Tmax [3]: 1.8 h; AUC at 24 h [4]: 861 ng·h/mL
2 | Cc1cnc(Oc2ccc3nc(COc4cccc(C(=O)[O-])c4)n(C)c3c2)c(F)c1.[Na+] | 10.8 | 65.7 | 420 | 3610 | 2 |  |  |  |  |  |  |  |  |  |  | 
3 | Cc1cnc(Oc2ccc3nc(COc4cccc(C(=O)O)c4)n(C)c3c2)c(C)c1 |  |  |  |  |  | inactive | 13 |  |  |  |  |  |  |  |  | Activity [12]: Dose-dependent effect
4 | Cn1c(COc2cccc(C(=O)O)c2)nc2ccc(Oc3ncc(Cl)cc3F)cc21 | 13.8 | 70.6 | 450 | 3910 | 2 |  | 5 | 10 (≈ 23.4 µM) | 11.8 | 90 | 79 | 87 | 1.3 | < 5.00 |  | Activity [13]: Non-Toxic; Tmax [14]: 3.25 h; half-life [16]: 8.84 h; Activity [17]: Non-Toxic; bioavailability [19]: 31%; Cmax [20]: 1190 ng/mL; Vd [21]: 0.5 L/kg; remaining at 0.5 h [22]: 91%; clearance [26]: 1.66 mL/min/kg; AUC(0-t) [27]: 9940 ng·h/mL
5 | Cc1ccc(Oc2ccc3nc(COc4cccc(C(=O)O)c4)n(C)c3n2)cc1 | 6.8 | 37.6 | 510 | 2520 | 2 | inactive | 38 | 33 (≈ 84.7 µM) | 12.6 |  | 58 | 100 | 1.7 | < 5.00 | 7.35 | 
6 | Cn1c(COc2cccc(C(=O)O)c2)nc2ccc(Oc3ncc(Cl)cc3Cl)cc21 | 10.1 | 53.3 | 130 | 1400 | 2.4 |  | 6 | 9.9 (≈ 22.3 µM) | 16.1 | 100 | 61 |  | 1.9 | < 5.00 | 7.05 | 
